We go through one compound from US20110076332A1, “Dextran-chitosan based in-situ gelling hydrogels for biomedical applications” (priority 2009, published 2011).

In this assay the test system is Staphylococcus aureus (S. aureus). Nature of the assay: Bacterial attachment and biofilm formation on hydrogels in 96-well plates, MTS assay. It is filed as cell-based. To be noted: whether or not a hydrogel was present. Here is the method: Determination of bacteriostatic action against S. Aureus bacteria: Staphylococcus aureus (S. aureus) was used to study the resistance of selected dextran-chitosan hydrogels of the present invention to bacterial attachment and biofilm formation. Six different types of gels, having different chitosan-to-dextran ratios, proteins and bactericidal drugs, with six replicates each, were prepared in 96-well plates under sterile conditions. FIG. 18 is a bar chart showing the relative extent of bacterial growth, as estimated by MTS assay, for the various cases studied.
The chitosan and dextran solutions used in this study were prepared as described above. With reference to the labels used in FIG. 17, hydrogels were prepared with chitosan-dextran ratios of 1:1 (“1:1”), 2:1 (“2:1”) and 3:1 (“3:1”). Wells with chitosan sheets alone (“CS”), empty wells (“10̂8”), wells with vancomycin alone (“10̂8+VMC”) and wells with PBS alone (“PBS”) were used as controls. Additional hydrogels having chitosan-dextran ratios of 2:1 were prepared with fibronectin (“2:1+FN”), vancomycin (“2:1+VMC”) or both (“2:1+FN+VMC”) were also studied to understand the effect of drug loading and release on bacterial colony formation.
For the study, triplicate plates of each combination were seeded with S. aureus at a concentration of 1.0×10^8 bacteria/ml. The bacteria were allowed to attach and grow overnight (16 hours). […]

As to `CN[C@H](CC(C)C)C(=O)N[C@H]1C(=O)N[C@@H](CC(N)=O)C(=O)N[C@H]2C(=O)N[C@H]3C(=O)N[C@H](C(=O)N[C@H](C(=O)O)c4cc(O)cc(O)c4-c4cc3ccc4O)[C@H](O)c3ccc(c(Cl)c3)Oc3cc2cc(c3O[C@@H]2O[C@H](CO)[C@@H](O)[C@H](O)[C@H]2O[C@H]2C[C@](C)(N)[C@H](O)[C@H](C)O2)Oc2ccc(cc2Cl)[C@H]1O` [vancomycin], the bacterial colony formation result was “reduced bacterial colony formation”.
